Assay: Preclinical incorporation dosimetry: whole-body PET/CT in piglets, scaled to human, OLINDA 2.1, ICRP103
Format: in vivo, juvenile pigs
Experimental: Three piglets (age: ~6 weeks, weight: ~13–15 kg) were fasted on the day of imaging and received an intranuscular. injection of 1 mL azaperone and 4 mL ketamine to introduce anesthesia. […] During narcosis, the animals maintained spontaneous respiration and no mandatory ventilation was applied. The subjects were sequentially imaged after an iv injection (contralateral ear vein) of 156 ± 54 MBq [^18F]FACH (0.63 ± 0.49 µg) in a PET/CT system (Biograph16, SIEMENS, Erlangen, Germany). The piglets were positioned prone with legs alongside the body on a custom-made plastic trough including a piglet head-holder (Figure 5). The PET acquisition was divided into a sequential (4 × 9 min, 3 × 12 min) and a static part (1 × 24 min, 1 × 30 min, 1 × 36 min), each of which was preceded by a low-dose CT to acquire structural data for attenuation correction (AC) and anatomical orientation (Figure 6). Post mortem, the urine was collected by bladder punctuation, weighted, and divided into three 1 mL samples for activity measurements in a gamma-counter (Packard Cobra II 5003 Auto Gamma Counting System, GMI, Ramsey, MN, USA).
PET data reconstruction was done using low-dose CT attenuation correction (AC) and an iterative OSEM algorithm with 4 iterations and 8 subsets. As the PET/CT system is in daily clinical use, it is periodically subjected to detector normalization and activity calibration. Furthermore, all peripheral activity-measuring devices to be used for the investigation (dose calibrator, gamma counter) are cross-calibrated in terms of timing and a radioactivity adjustment.
The image data were analyzed with ROVER (ABX, Radeberg, Germany; v. 3.0.46h). The organs were identified and manually delineated using 3D volumes of interest (VOI). The CT data were used for anatomical orientation and for image registration with the PET data. Relevant source organs like brain, gall bladder, large intestine, small intestine, stomach, heart, kidneys, liver, lungs, pancreas, red marrow (backbone, pelvis, sternum), spleen, thyroid, testes, skeleton (bone), and the urinary bladder were delineated and the time–activity data transformed into percentage of injected dose (%IDorgan) with Equation (2). (2) %IDorgant=Aorgant×cscant/A0t [%] where Aorgant is the activity in the organ at the time t; cscant is a calibration factor representing the theoretical body activity (derived from a whole body mask of a volume that equals the body dimentions of the animal) decay corrected to t and divided by the imaged body activity in each image frame at the time t, and A0t is the injected activity decay corrected to t0.
The dose calculation has been described by our group in detail before. Briefly, due to differences in weight, size, and metabolic rates between the animal species and the human volunteers, it is necessary to map the preclinical extracted biodistribution data to human circumstances. Thus, the animal biokinetic data (time scale and %ID values) were adapted to the human circumstances according to [22] to fit the human weight, size, and metabolic rates (Equations (3) and (4)). (3) thuman=tanimal[mhuman/manimal]^0.25 (4) [%ID]/organhuman=[%ID]/ganimal×mTBanimal[g]/mTBhuman[g]×morganhuman[g]
The TIACs were estimated by exponential fitting and the dosimetry estimation was performed using OLINDA/EXM software (v. 2.1). Finally, organ doses (OD) were estimated and multiplied by tissue weighting factors as published in ICRP103 [20].

Compound: CCCN(CCC[18F])c1ccc(/C=C(\C#N)C(=O)O)c(OC)c1 [[^18F]FACH, (E)-2-cyano-3-{4-[(3-[^18F]fluoropropyl)(propyl)amino]-2-methoxyphenyl}acrylic acid]
- Effective dose (FACHpig1): 1.25E-02 mSv/MBq
- Effective dose contribution HT wT, Adrenals (FACHpig1): 1.26E-04 mSv/MBq
- Effective dose contribution HT wT, Brain (FACHpig1): 5.61E-05 mSv/MBq
- Effective dose contribution HT wT, Esophagus (FACHpig1): 4.16E-04 mSv/MBq
- Effective dose contribution HT wT, Eyes (FACHpig1): 0.00E+00 mSv/MBq
- Effective dose contribution HT wT, Gallbladder Wall (FACHpig1): 1.12E-04 mSv/MBq
- Effective dose contribution HT wT, Heart Wall (FACHpig1): 9.47E-05 mSv/MBq
- Effective dose contribution HT wT, Kidneys (FACHpig1): 2.47E-04 mSv/MBq
- Effective dose contribution HT wT, Left colon (FACHpig1): 7.77E-04 mSv/MBq
- Effective dose contribution HT wT, Liver (FACHpig1): 3.22E-04 mSv/MBq
- Effective dose contribution HT wT, Lungs (FACHpig1): 9.67E-04 mSv/MBq
- Effective dose contribution HT wT, Osteogenic Cells (FACHpig1): 2.00E-04 mSv/MBq
- Effective dose contribution HT wT, Pancreas (FACHpig1): 5.61E-04 mSv/MBq
- Effective dose contribution HT wT, Prostate (FACHpig1): 7.36E-05 mSv/MBq
- Effective dose contribution HT wT, Rectum (FACHpig1): 3.44E-04 mSv/MBq
- Effective dose contribution HT wT, Red Marrow (FACHpig1): 1.58E-03 mSv/MBq
- Effective dose contribution HT wT, Right colon (FACHpig1): 9.34E-04 mSv/MBq
- Effective dose contribution HT wT, Salivary Glands (FACHpig1): 1.03E-04 mSv/MBq
- Effective dose contribution HT wT, Small Intestine (FACHpig1): 1.74E-04 mSv/MBq
- Effective dose contribution HT wT, Spleen (FACHpig1): 9.48E-05 mSv/MBq
- Effective dose contribution HT wT, Stomach Wall (FACHpig1): 1.71E-03 mSv/MBq
- Effective dose contribution HT wT, Testes (FACHpig1): 4.40E-04 mSv/MBq
- Effective dose contribution HT wT, Thymus (FACHpig1): 9.49E-05 mSv/MBq
- Effective dose contribution HT wT, Thyroid (FACHpig1): 3.21E-04 mSv/MBq
- Effective dose contribution HT wT, Total Body (FACHpig1): 0.00E+00 mSv/MBq
- Effective dose contribution HT wT, Urinary Bladder Wall (FACHpig1): 2.74E-03 mSv/MBq
- Organ equivalent dose HT, Adrenals (FACHpig1): 1.36E-02 mSv/MBq
- Organ equivalent dose HT, Brain (FACHpig1): 5.61E-03 mSv/MBq
- Organ equivalent dose HT, Esophagus (FACHpig1): 1.04E-02 mSv/MBq
- Organ equivalent dose HT, Eyes (FACHpig1): 8.81E-03 mSv/MBq
- Organ equivalent dose HT, Gallbladder Wall (FACHpig1): 1.22E-02 mSv/MBq
- Organ equivalent dose HT, Heart Wall (FACHpig1): 1.03E-02 mSv/MBq
- Organ equivalent dose HT, Kidneys (FACHpig1): 2.67E-02 mSv/MBq
- Organ equivalent dose HT, Left colon (FACHpig1): 1.60E-02 mSv/MBq
- Organ equivalent dose HT, Liver (FACHpig1): 8.05E-03 mSv/MBq
- Organ equivalent dose HT, Lungs (FACHpig1): 8.05E-03 mSv/MBq
- Organ equivalent dose HT, Osteogenic Cells (FACHpig1): 2.00E-02 mSv/MBq
- Organ equivalent dose HT, Pancreas (FACHpig1): 6.08E-02 mSv/MBq
- Organ equivalent dose HT, Prostate (FACHpig1): 1.59E-02 mSv/MBq
- Organ equivalent dose HT, Rectum (FACHpig1): 1.50E-02 mSv/MBq
- Organ equivalent dose HT, Red Marrow (FACHpig1): 1.32E-02 mSv/MBq
- Organ equivalent dose HT, Right colon (FACHpig1): 1.93E-02 mSv/MBq
- Organ equivalent dose HT, Salivary Glands (FACHpig1): 1.03E-02 mSv/MBq
- Organ equivalent dose HT, Small Intestine (FACHpig1): 1.88E-02 mSv/MBq
- Organ equivalent dose HT, Spleen (FACHpig1): 1.03E-02 mSv/MBq
- Organ equivalent dose HT, Stomach Wall (FACHpig1): 1.43E-02 mSv/MBq
- Organ equivalent dose HT, Testes (FACHpig1): 1.10E-02 mSv/MBq
- Organ equivalent dose HT, Thymus (FACHpig1): 1.03E-02 mSv/MBq
- Organ equivalent dose HT, Thyroid (FACHpig1): 8.02E-03 mSv/MBq
- Organ equivalent dose HT, Total Body (FACHpig1): 1.15E-02 mSv/MBq
- Organ equivalent dose HT, Urinary Bladder Wall (FACHpig1): 6.86E-02 mSv/MBq
- Effective dose (FACHpig2): 1.19E-02 mSv/MBq
- Effective dose contribution HT wT, Adrenals (FACHpig2): 1.33E-04 mSv/MBq
- Effective dose contribution HT wT, Brain (FACHpig2): 4.35E-05 mSv/MBq
- Effective dose contribution HT wT, Esophagus (FACHpig2): 3.43E-04 mSv/MBq
- Effective dose contribution HT wT, Eyes (FACHpig2): 0.00E+00 mSv/MBq
- Effective dose contribution HT wT, Gallbladder Wall (FACHpig2): 4.78E-04 mSv/MBq
- Effective dose contribution HT wT, Heart Wall (FACHpig2): 8.50E-05 mSv/MBq
- Effective dose contribution HT wT, Kidneys (FACHpig2): 2.20E-04 mSv/MBq
- Effective dose contribution HT wT, Left colon (FACHpig2): 7.07E-04 mSv/MBq
- Effective dose contribution HT wT, Liver (FACHpig2): 1.11E-03 mSv/MBq
- Effective dose contribution HT wT, Lungs (FACHpig2): 9.55E-04 mSv/MBq
- Effective dose contribution HT wT, Osteogenic Cells (FACHpig2): 2.34E-04 mSv/MBq
- Effective dose contribution HT wT, Pancreas (FACHpig2): 2.11E-04 mSv/MBq
- Effective dose contribution HT wT, Prostate (FACHpig2): 4.73E-05 mSv/MBq
- Effective dose contribution HT wT, Rectum (FACHpig2): 3.17E-04 mSv/MBq
- Effective dose contribution HT wT, Red Marrow (FACHpig2): 1.97E-03 mSv/MBq
- Effective dose contribution HT wT, Right colon (FACHpig2): 1.58E-03 mSv/MBq
- Effective dose contribution HT wT, Salivary Glands (FACHpig2): 7.07E-05 mSv/MBq
- Effective dose contribution HT wT, Small Intestine (FACHpig2): 2.47E-04 mSv/MBq
- Effective dose contribution HT wT, Spleen (FACHpig2): 8.20E-05 mSv/MBq
- Effective dose contribution HT wT, Stomach Wall (FACHpig2): 1.22E-03 mSv/MBq
- Effective dose contribution HT wT, Testes (FACHpig2): 2.83E-04 mSv/MBq
- Effective dose contribution HT wT, Thymus (FACHpig2): 7.07E-05 mSv/MBq
- Effective dose contribution HT wT, Thyroid (FACHpig2): 2.52E-04 mSv/MBq
- Effective dose contribution HT wT, Total Body (FACHpig2): 0.00E+00 mSv/MBq
- Effective dose contribution HT wT, Urinary Bladder Wall (FACHpig2): 1.25E-03 mSv/MBq
- Organ equivalent dose HT, Adrenals (FACHpig2): 1.44E-02 mSv/MBq
- Organ equivalent dose HT, Brain (FACHpig2): 4.35E-03 mSv/MBq
- Organ equivalent dose HT, Esophagus (FACHpig2): 8.58E-03 mSv/MBq
- Organ equivalent dose HT, Eyes (FACHpig2): 6.29E-03 mSv/MBq
- Organ equivalent dose HT, Gallbladder Wall (FACHpig2): 5.18E-02 mSv/MBq
- Organ equivalent dose HT, Heart Wall (FACHpig2): 9.21E-03 mSv/MBq
- Organ equivalent dose HT, Kidneys (FACHpig2): 2.38E-02 mSv/MBq
- Organ equivalent dose HT, Left colon (FACHpig2): 1.46E-02 mSv/MBq
- Organ equivalent dose HT, Liver (FACHpig2): 2.77E-02 mSv/MBq
- Organ equivalent dose HT, Lungs (FACHpig2): 7.96E-03 mSv/MBq
- Organ equivalent dose HT, Osteogenic Cells (FACHpig2): 2.34E-02 mSv/MBq
- Organ equivalent dose HT, Pancreas (FACHpig2): 2.28E-02 mSv/MBq
- Organ equivalent dose HT, Prostate (FACHpig2): 1.02E-02 mSv/MBq
- Organ equivalent dose HT, Rectum (FACHpig2): 1.38E-02 mSv/MBq
- Organ equivalent dose HT, Red Marrow (FACHpig2): 1.64E-02 mSv/MBq
- Organ equivalent dose HT, Right colon (FACHpig2): 3.25E-02 mSv/MBq
- Organ equivalent dose HT, Salivary Glands (FACHpig2): 7.07E-03 mSv/MBq
- Organ equivalent dose HT, Small Intestine (FACHpig2): 2.67E-02 mSv/MBq
- Organ equivalent dose HT, Spleen (FACHpig2): 8.88E-03 mSv/MBq
- Organ equivalent dose HT, Stomach Wall (FACHpig2): 1.01E-02 mSv/MBq
- Organ equivalent dose HT, Testes (FACHpig2): 7.08E-03 mSv/MBq
- Organ equivalent dose HT, Thymus (FACHpig2): 7.66E-03 mSv/MBq
- Organ equivalent dose HT, Thyroid (FACHpig2): 6.30E-03 mSv/MBq
- Organ equivalent dose HT, Total Body (FACHpig2): 9.14E-03 mSv/MBq
- Organ equivalent dose HT, Urinary Bladder Wall (FACHpig2): 3.12E-02 mSv/MBq
- Effective dose (FACHpig3): 1.29E-02 mSv/MBq
- Effective dose contribution HT wT, Adrenals (FACHpig3): 1.35E-04 mSv/MBq
- Effective dose contribution HT wT, Brain (FACHpig3): 4.10E-05 mSv/MBq
- Effective dose contribution HT wT, Esophagus (FACHpig3): 3.24E-04 mSv/MBq
- Effective dose contribution HT wT, Eyes (FACHpig3): 0.00E+00 mSv/MBq
- Effective dose contribution HT wT, Gallbladder Wall (FACHpig3): 8.05E-04 mSv/MBq

From article PMC7248880, “Preclinical Incorporation Dosimetry of [^18F]FACH—A Novel ^18F-Labeled MCT1/MCT4 Lactate Transporter Inhibitor for Imaging Cancer Metabolism with PET” (Molecules, 2020)
